Data taken from patent publication US20210308101A1, “METHODS OF TREATING FIBROMYALGIA” (Aptinyx Inc., priority 2019, published 2021).

Legend:
Type in all cases: in vivo, human
[1] = test system: subjects with fibromyalgia; experiment: QST: cuff algometry
Protocol: Large volume, deep tissue pressure sensitivity was assessed by cuff algometry. Calibrated cuff pain stimuli were delivered to the gastrocnemius area of the lower leg using a validated MRI-compatible cuff pain device. This system included an air compressor, computerized pressure controller, and a 13.5 cm×82.5 cm Velcro-adjusted pressure cuff (similar to a blood pressure cuff). Subjects first received an ascending series of cuff pressures, starting at 20 mmHg and increasing in 20-mmHg steps (10- to 14-second duration pressures, 20-second interstimulus interval) to tolerance or a maximum of 400 mmHg. Each pressure was rated after deflation on a 0 to 100 NRS. These pain ratings were used to interpolate a series of 9 tolerable cuff pressures that were delivered in pseudo-randomized order and rated individually. […] Curves were constructed for each participant and used for analysis of drug and placebo effects. An abbreviated form of cuff algometry was performed during fMRI as an evoked pain stimulus.
(§1) QST data were analyzed at the University of Michigan CPFRC. Dependent variables were the MAST derived outcomes (Pain50, pressure pain threshold, pain tolerance, and pain ratings at 2 kg/cm2), algometry-derived pressure pain thresholds (mean of three trials) at each anatomical site, average cuff intensity ratings (mean of ratings at all stimulus levels during the ascending or random sequences), and average visual task unpleasantness and brightness intensity ratings (mean of ratings at all stimulus levels). Practice data were not analyzed. Overall pain intensity and unpleasantness NRS scores as well as stimulus response curves for each test were assessed during post hoc analyses. Data points displaying measurement artefacts, including device malfunction or user error, were set to missing. Single subject QST variables were analyzed using paired t-tests and/or nonparametric Wilcoxon signed-rank tests in SPSS or R.

[2] = test system: subjects with fibromyalgia; experiment: QST: digital algometer pressure pain threshold (trapezius, wrist, patella)
Protocol: Localized pressure pain sensitivity was also measured bilaterally at 3 additional body regions: trapezius, wrist, and patella. Examination of multiple sites across all quadrants of the body permitted analysis of the distribution of pain sensitivity. Sensitivity was measured using a digital algometer with a 1-cm^2 flat rubber probe. […] Measurements were conducted 2 to 3 times (15- to 20-second intervals) at each site.
as §1

[3] = test system: subjects with fibromyalgia; experiment: Safety evaluation in the fibromyalgia study; settings: 20 mg then 200 mg PO QD, 2 weeks each
Source text: Adverse events (AEs), vital signs, electrocardiograms, physical examinations, Columbia Suicide Rating Scales, and clinical laboratory samples were collected throughout the study.
• Adverse events • Vital sign measurements • Clinical laboratory test results • Electrocardiogram results • Physical examination findings • Columbia-Suicide Severity Rating Scale (C-SSRS)

[4] = test system: subjects with fibromyalgia; experiment: Multidimensional Inventory of Subject Cognitive Impairment (MISCI); settings: not statistically significant
Source text: As used herein, “MISCI” is Multidimensional Inventory of Subject Cognitive Impairment. The MISCI is a 10-item assessment that measures cognitive function. The instrument examines 5 cognitive domains: mental clarity, memory, language, executive functioning, and attention/concentration. The first 6 items are positively worded and reflect perceived cognitive abilities and the last 4 items are negatively worded and reflect perceived cognitive difficulties. The same scoring metric is used for both response scales. However, the scores on items 7-10 must be reverse-coded prior to summing the responses to generate the total score due to the negative wording of these items. Here is a list of the categorical responses with the numeric values that make up the total score: • Positively Worded Items 1-6:“Not at All”=1; “A Little Bit”=2; “Somewhat”=3; “Quite a Bit”=4; “Very Much”=5 • Negatively Worded Items 7-10: “Never”=5; “Rarely”=4; “Sometimes”=3; “Often”=2; “Very Often”=1
The total score was calculated by the sum of all the 10 items ranging from 10 to 50, with higher scores indicating better perceived cognitive functioning (i.e. lower impairment). […] The MISCI assessment was collected and analyzed at visits Screening, Day 1, Week 2, Week 4, Week 6, and Follow-up (Week 7). […] Additionally, the treatment group comparisons were analyzed using the paired ttest and nonparametric Wilcoxon signed-rank test.

CC(C)C(=O)N1CCC[C@]12CN([C@H](C(N)=O)[C@@H](C)O)C2=O [NYX-2925, (2S, 3R)-3-hydroxy-2-((R)-5-isobutyryl-1-oxo-2,5-diazaspiro[3.4]octan-2-yl)butanamide]
mean pain intensity rating of the Cuff Random paradigm ([1]; NYX-2925 20 mg relative to baseline, p=0.073): marginally reduced
Cuff Random Pain50 threshold ([1]; NYX-2925 20 mg, baseline 151.89±110.64, p=0.031): 193.00±128.16 mmHg
Cuff Random Pain50 threshold ([1]; NYX-2925 200 mg, baseline 157.70±110.78, p=0.038): 209.80±132.51 mmHg
cuff algometry procedure overall unpleasantness rating ([1]; Week 7 follow-up, after cessation of NYX-2925, p=0.040 vs 200 mg): 30.00±22.82
cuff algometry procedure overall unpleasantness rating ([1]; treatment with NYX-2925 200 mg (Week 6)): 25.00±19.15
right trapezius pressure pain threshold ([2]; 200 mg, placebo 1.77±1.53, p=0.047): 1.58±1.37 kgf/cm^2
left wrist pressure pain threshold ([2]; NYX-2925 20 mg, baseline 1.60±1.11, p=0.042): 1.30±1.08 kgf/cm^2
right wrist pressure pain threshold ([2]; NYX-2925 20 mg, baseline 1.64±1.30, p=0.021): 1.28±1.10 kgf/cm^2
right wrist pressure pain threshold ([2]; NYX-2925 200 mg, baseline 1.64±1.30, p=0.042): 1.32±1.15 kgf/cm^2
discontinuations due to treatment-emergent adverse events (TEAE) [3]: no discontinuations
safety and tolerability [3]: safe and well tolerated
serious adverse events [3]: No serious adverse events
MISCI Total score, mean change ([4]; Week 2 (placebo) to Week 4 (NYX-2925 20 mg)): 1.1
MISCI Total score, mean change ([4]; Week 2 (placebo) to Week 6 (NYX-2925 200 mg)): 0.9
